Reference: PubChem BioAssay AID1963977 (Molecular Pharmacology Branch, DTP, NCI, 2024)

Tested on: 624824-186-R-J3-PDC multicell spheroids, viability
Assay: Anticancer human tumor 624824-186-R-J3-PDC patient-derived colon adenocarcinoma cell line growth inhibition [PI3K]
Conditions: for IC50: curve of first compound; for viability, T/C: stronger effect = lower value
How it was run: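 Complex 3D spheroids (cancer cells + endothelial HUVEC + mesenchymal stem cells); drug pairs of targeted agent x inavolisib/alpelisib/duvelisib/copanlisib; half-log series from ~Cmax, max 10 microM if Cmax unknown; endpoint viability.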

[1] = second compound 0.0316 µM, first compound 0.0316 µM
[2] = second compound 0.0316 µM, first compound 0.1 µM
[3] = second compound 0.0316 µM, first compound 0.316 µM
[4] = second compound 0.0316 µM, first compound 1 µM
[5] = second compound 0.1 µM, first compound 0.0316 µM
[6] = second compound 0.1 µM, first compound 0.1 µM
[7] = second compound 0.1 µM, first compound 0.316 µM
[8] = second compound 0.1 µM, first compound 1 µM
[9] = second compound 0.316 µM, first compound 0.0316 µM
[10] = second compound 0.316 µM, first compound 0.1 µM
[11] = second compound 0.316 µM, first compound 0.316 µM
[12] = second compound 0.316 µM, first compound 1 µM
[13] = second compound 1 µM, first compound 0.0316 µM
[14] = second compound 1 µM, first compound 0.1 µM
[15] = second compound 1 µM, first compound 0.316 µM
[16] = second compound 1 µM, first compound 1 µM
[17] = second compound 3.16 µM, first compound 0.0316 µM
[18] = second compound 3.16 µM, first compound 0.1 µM
[19] = second compound 3.16 µM, first compound 0.316 µM
[20] = second compound 3.16 µM, first compound 1 µM
[21] = second compound 10 µM, first compound 0.0316 µM
[22] = second compound 10 µM, first compound 0.1 µM
[23] = second compound 10 µM, first compound 0.316 µM
[24] = second compound 10 µM, first compound 1 µM
[25] = second compound 0.0316 µM, first compound 3.16 µM
[26] = second compound 0.0316 µM, first compound 10 µM
[27] = second compound 0.1 µM, first compound 3.16 µM
[28] = second compound 0.1 µM, first compound 10 µM
[29] = second compound 0.316 µM, first compound 3.16 µM
[30] = second compound 0.316 µM, first compound 10 µM
[31] = second compound 1 µM, first compound 3.16 µM
[32] = second compound 1 µM, first compound 10 µM
[33] = second compound 3.16 µM, first compound 3.16 µM
[34] = second compound 3.16 µM, first compound 10 µM
[35] = second compound 10 µM, first compound 3.16 µM
[36] = second compound 10 µM, first compound 10 µM
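Note: spheroids exposed to agents for seven days before luminescence read.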
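Throughout, for viability, T/C: luminescent signal used as a stand-in for spheroid viability; percent viability relative to DMSO vehicle control wells taken as 100%.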

For `CCN1CCN(Cc2ccc(Nc3ncc(F)c(-c4cc(F)c5nc(C)n(C(C)C)c5c4)n3)nc2)CC1` + Cc1nc(NC(=O)N2CCCC2C(N)=O)sc1-c1ccnc(C(C)(C)C(F)(F)F)c1, the IC50 (second compound 0.0316 µM) was > 1000 nM, the IC50 (second compound 0.1 µM) was > 1000 nM and the IC50 (second compound 0.316 µM) was > 1000 nM. The IC50 (second compound 1 µM) was > 1000 nM, the IC50 (second compound 3.16 µM) was 753 nM and the IC50 (second compound 10 µM) was 29.6 nM. The viability, T/C (second compound 0.0316 µM, first compound 0.00316 µM) was 106%, the viability, T/C (second compound 0.0316 µM, first compound 0.01 µM) was 99.3% and the viability, T/C [1] was 106%. The viability, T/C [2] was 108%, the viability, T/C [3] was 100% and the viability, T/C [4] was 94.2%. For the same compound, the viability, T/C (second compound 0.1 µM, first compound 0.00316 µM) was 106%, the viability, T/C (second compound 0.1 µM, first compound 0.01 µM) was 109% and the viability, T/C [5] was 112%. For the same compound, the viability, T/C [6] was 107%, the viability, T/C [7] was 97.5% and the viability, T/C [8] was 89.6%. It also gave a viability, T/C (second compound 0.316 µM, first compound 0.00316 µM) of 102%, a viability, T/C (second compound 0.316 µM, first compound 0.01 µM) of 116% and a viability, T/C [9] of 97.4%. The viability, T/C [10] was 94.6%, the viability, T/C [11] was 88.1% and the viability, T/C [12] was 73.1%. It also gave a viability, T/C (second compound 1 µM, first compound 0.00316 µM) of 101%, a viability, T/C (second compound 1 µM, first compound 0.01 µM) of 105% and a viability, T/C [13] of 98.1%. It also gave a viability, T/C [14] of 81.6%, a viability, T/C [15] of 62.9% and a viability, T/C [16] of 58.3%. The viability, T/C (second compound 3.16 µM, first compound 0.00316 µM) was 85.3%, the viability, T/C (second compound 3.16 µM, first compound 0.01 µM) was 92% and the viability, T/C [17] was 77.8%. It also gave a viability, T/C [18] of 57%, a viability, T/C [19] of 47.9% and a viability, T/C [20] of 51.6%. For the same compound, the viability, T/C (second compound 10 µM, first compound 0.00316 µM) was 64.6%, the viability, T/C (second compound 10 µM, first compound 0.01 µM) was 59.6% and the viability, T/C [21] was 50.4%. For the same compound, the viability, T/C [22] was 41.5%, the viability, T/C [23] was 36.6% and the viability, T/C [24] was 48.6%.
Work on `Cn1ncc(Cl)c1-c1cc(C(=O)NC(CN)Cc2cccc(F)c2)sc1Cl` (stereo unspecified) + Cc1nc(NC(=O)N2CCCC2C(N)=O)sc1-c1ccnc(C(C)(C)C(F)(F)F)c1 yielded an IC50 (second compound 0.0316 µM) of 3910 nM, an IC50 (second compound 0.1 µM) of 2840 nM and an IC50 (second compound 0.316 µM) of 2440 nM. For the same compound, the IC50 (second compound 1 µM) was 2850 nM, the IC50 (second compound 3.16 µM) was 1770 nM and the IC50 (second compound 10 µM) was 933 nM. For the same compound, the viability, T/C [1] was 107%, the viability, T/C [2] was 95.5% and the viability, T/C [3] was 90.2%. The viability, T/C [4] was 71.7%, the viability, T/C [25] was 52.4% and the viability, T/C [26] was 36.4%. The viability, T/C [5] was 104%, the viability, T/C [6] was 103% and the viability, T/C [7] was 98.8%. The viability, T/C [8] was 70.9%, the viability, T/C [27] was 49.8% and the viability, T/C [28] was 39%. It also gave a viability, T/C [9] of 108%, a viability, T/C [10] of 104% and a viability, T/C [11] of 89.4%. The viability, T/C [12] was 61%, the viability, T/C [29] was 50% and the viability, T/C [30] was 36.1%. It also gave a viability, T/C [13] of 102%, a viability, T/C [14] of 87% and a viability, T/C [15] of 82.2%. The viability, T/C [16] was 70.1%, the viability, T/C [31] was 44.9% and the viability, T/C [32] was 30.4%. It also gave a viability, T/C [17] of 76.7%, a viability, T/C [18] of 89% and a viability, T/C [19] of 81.9%. It also gave a viability, T/C [20] of 56.7%, a viability, T/C [33] of 42.8% and a viability, T/C [34] of 26.7%. The viability, T/C [21] was 74.5%, the viability, T/C [22] was 68% and the viability, T/C [23] was 54.8%. For the same compound, the viability, T/C [24] was 53.8%, the viability, T/C [35] was 37.6% and the viability, T/C [36] was 21.6%.
In the case of `Cn1nccc1Nc1nccc(-c2ccn(C(CO)c3ccc(Cl)c(F)c3)c(=O)c2)n1` (stereo unspecified) + Cc1nc(NC(=O)N2CCCC2C(N)=O)sc1-c1ccnc(C(C)(C)C(F)(F)F)c1, the IC50 (second compound 0.0316 µM) is reported as 8080 nM, the IC50 (second compound 0.1 µM) is reported as 5010 nM and the IC50 (second compound 0.316 µM) is reported as 1570 nM. The IC50 (second compound 1 µM) was 783 nM, the IC50 (second compound 3.16 µM) was 223 nM and the IC50 (second compound 10 µM) was 100 nM. It also gave a viability, T/C [1] of 119%, a viability, T/C [2] of 105% and a viability, T/C [3] of 90.7%. It also gave a viability, T/C [4] of 74.7%, a viability, T/C [25] of 55% and a viability, T/C [26] of 49.5%. For the same compound, the viability, T/C [5] was 109%, the viability, T/C [6] was 104% and the viability, T/C [7] was 83.6%. For the same compound, the viability, T/C [8] was 73%, the viability, T/C [27] was 56.3% and the viability, T/C [28] was 40.9%. The viability, T/C [9] was 106%, the viability, T/C [10] was 110% and the viability, T/C [11] was 78%. For the same compound, the viability, T/C [12] was 58%, the viability, T/C [29] was 42% and the viability, T/C [30] was 31.8%. The viability, T/C [13] was 103%, the viability, T/C [14] was 89.5% and the viability, T/C [15] was 72.7%. For the same compound, the viability, T/C [16] was 43.2%, the viability, T/C [31] was 29.6% and the viability, T/C [32] was 25.4%. The viability, T/C [17] was 84.5%, the viability, T/C [18] was 77.7% and the viability, T/C [19] was 37.6%. The viability, T/C [20] was 21.3%, the viability, T/C [33] was 17.8% and the viability, T/C [34] was 16.2%. It also gave a viability, T/C [21] of 62.2%, a viability, T/C [22] of 50.4% and a viability, T/C [23] of 27.3%. It also gave a viability, T/C [24] of 14.1%, a viability, T/C [35] of 10.9% and a viability, T/C [36] of 7.57%.
